Results taken from the METLIN SMRT retention time set (Domingo-Almenara et al. 2019).

Assay: gradient 5% acetonitrile 3 min, to 50% in 2 min, to 85% in 15 min, held 3 min, 100 µL/min
Details: column: Zorbax Extend-C18 2.1 x 50 mm; eluents: water / acetonitrile, 0.1% formic acid
In short: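 Values are retention times taken from adduct peaks that software picked and an analyst inspected. The pure standards were run as mixtures of ~100 molecules on HPLC linked to a quadrupole time-of-flight mass spectrometer, in positive and negative ionization mode. A Zorbax Extend-C18 column (2.1 × 50 mm, 1.8 μm) was used at 100 μL/min with water and acetonitrile, each including 0.1% formic acid.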

| SMILES | RP-LC retention time [s] |
| --- | --- |
| Cc1ccc(NC(=O)CN2C(=O)CCCc3cc(S(=O)(=O)N4CCCCC4)ccc32)cc1 | 845 |
| Cc1noc(C)c1-c1ccc(S(=O)(=O)NCc2cccs2)cc1 | 869 |
| O=C(Cc1ccccc1)N1CCCC1c1nc(-c2ccccc2)no1 (stereo not given) | 949 |
| CCn1c(N2CCCC(C(=O)NCC3CCN(Cc4ccccc4C)CC3)C2)cc(=O)n(C)c1=O (stereo not given) | 643 |
| Nc1nc(N2CCC3(CC2)OCCO3)ncc1S(=O)(=O)c1ccc(Cl)cc1 | 896 |
| O=C(NCc1ccco1)c1ccc2c(c1)CCCN2C(=O)c1ccc(Cl)cc1 | 852 |
| CN(CCNC(=O)CN(c1ccccc1)S(=O)(=O)N(C)C)Cc1ccccc1 | 656 |
| Cc1ccc(C)c(Nc2c(-c3ccc(O)cc3)nc3ncccn23)c1 | 664 |
| Cc1ccc(CNC(=O)c2ccc(-c3cc(N4CCCC4)ncn3)cc2)o1 | 654 |
| Clc1ccccc1-c1csc(Cc2nc(-c3ccc4c(c3)OCO4)no2)n1 | 1200 |
| COCCNC(=O)N1CCCn2nc(-c3ccc(C(F)(F)F)cc3)cc2C1 | 839 |
| O=S(=O)(c1ccc2c(c1)CCCC2)N1CCCC1c1nc(-c2ccccc2)no1 (stereo not given) | 1270 |
| CCCNS(=O)(=O)c1cc(-c2cc(C(F)(F)F)on2)sc1C | 1090 |
| Cc1nnc(-c2ccc3ccn(CC(=O)NC4CCCC4)c3c2)o1 | 740 |
| Cc1cnc(C2CN(C3CCCCCC3)C2)n1Cc1ccccc1 | 588 |
| Cc1ccnc(NS(=O)(=O)c2ccc(NC(=O)CN3C(=O)CCC3=O)cc2)n1 | 546 |
| Cc1c(F)cccc1NS(=O)(=O)c1cc(-c2nc(C(C)(C)C)cs2)cs1 | 1310 |
| Cc1ccccc1S(=O)(=O)NC1CCN(c2ccc(=O)n(C)n2)C1 (stereo not given) | 705 |
| CCN1CCn2cc(S(=O)(=O)NCc3ccccc3C(F)(F)F)cc2C1=O | 760 |
| COc1ccc(NC(=O)Nc2cnc3c(c2)CCC3)cc1 | 516 |
| CCOC(=O)c1ccc2nc(C(F)(F)F)nc(NCCc3ccc(OC)c(OC)c3)c2c1 | 1140 |
| Cc1nc2cc(-c3noc(CNC(=O)c4ccccc4)n3)ccc2n(C)c1=O | 718 |
| CN(C)c1ncncc1N1CCC(C(=O)N2CCN(c3ccc(Cl)cc3)CC2)CC1 | 692 |

| SMILES | RP-LC retention time [s] |
| --- | --- |
| CCCNC(=O)CCC1CCN(c2cc(NC3CC3)ncn2)CC1 | 600 |
| CCOC(=O)c1ccccc1NC(=O)CSc1ccc(-c2ccc3c(c2)OCO3)nn1 | 974 |
| CC(C)CNC(=O)N1CCCC(c2nn[nH]n2)C1 (stereo not given) | 617 |
| Cc1ccc(NC(=O)C2CCCN(c3nc4c(s3)c(C)nn4-c3ccccc3)C2)c(C)c1 (stereo not given) | 1200 |
| Cn1nnc2ccc(-c3noc(COc4ccc(F)cc4)n3)cc21 | 924 |
| O=C(c1cccc(Cl)c1)N1C[C@@H]2C[C@H]1C[C@@H]2NS(=O)(=O)c1cccnc1 | 709 |
| Cc1cccc(NC(=O)N2CCC3(CC2)NC(=O)c2ccccc2N3C)c1 | 616 |
| CN(C)c1cccc(C(=O)NCC(=O)N2CCCc3ccccc32)c1 | 728 |
| CCCC(NC(=O)c1ccncc1)C(=O)Nc1nc2ccccc2[nH]1 (stereo not given) | 602 |
| CCCNC(=O)Cn1nc2cc(-c3ccc(OC)cc3)nc(C)n2c1=O | 633 |
| Cn1c(=O)c2nc(S(=O)(=O)CCC(=O)Nc3cccc(Br)c3)n(C)c2n(C)c1=O | 750 |
| CCCC(NC(=O)Cc1ccc(Cl)cc1)C(=O)Nc1nc2ccccc2[nH]1 (stereo not given) | 753 |
| Cc1cccc(N2CCN(C(=O)C3CCN(c4cnc5nccnc5c4)CC3)CC2)c1 | 749 |
| CCNC(=O)C1CCc2sc(C(=O)N3CCCC3)cc2C1 (stereo not given) | 663 |
| O=C(Nc1nc(-c2ccc(F)cc2)cs1)c1cccc(F)c1 | 1060 |
| CCCCNC(=O)Cn1c(C(=O)OC)cc2oc3ccccc3c21 | 959 |
| Cc1ccc(S(=O)(=O)N(C)c2ccc(OCC(=O)N3CCOCC3)cc2)cc1 | 732 |
| CS(=O)(=O)Nc1ccc(C2(C(=O)NCc3ccc4c(c3)OCO4)CCCCC2)cc1 | 857 |
| CC(=O)Nc1ccc(C(=O)NC2CCN(c3cc(-c4ccccc4)[nH]n3)C2)cc1 (stereo not given) | 626 |
| O=S1(=O)C[C@H](N2CCN(Cc3ccccc3)CC2)[C@@H](S(=O)(=O)c2ccc(F)cc2)C1 | 647 |
| CCOC(=O)c1cc2c([nH]c1=O)CC(c1cccc(Cl)c1)CC2=O (stereo not given) | 770 |
| Cc1ccc2c(Nc3cc(F)cc(F)c3)c(C(=O)N3CCOCC3)cnc2n1 | 593 |
| COc1ccc(-c2nc3cc(C)ccn3c2NC(=O)c2cc(Br)ccc2Cl)cc1 | 715 |

| SMILES | RP-LC retention time [s] |
| --- | --- |
| Cc1cc(N2CCC(NS(=O)(=O)c3ccccc3F)C2=O)ccc1F (stereo not given) | 900 |
| CC(C)CC(=O)Nc1ccc(OCc2cc(C(=O)NC3CC3)no2)cc1 | 747 |
| O=C(Cn1c(CN2CCOCC2)nc2ccccc21)N1CCCC1 | 579 |
| CS(=O)(=O)N1CCc2nn(Cc3ccccc3)c(=O)n2CC1 | 641 |
| Cc1cccc(C)c1OCC(N)C(C)C (stereo not given) | 728 |
| O=S(=O)(Nc1ccccc1F)c1c[nH]c2ncccc12 | 697 |
| CCn1c(=O)c(N2CCN(C(=O)Nc3cccc(SC)c3)CC2)nc2ccccc21 | 928 |
| Cc1ccc(-c2cc3c(=O)n(Cc4nc(-c5ccccc5Br)no4)ncn3n2)c(C)c1 | 1250 |
| CC1=NS(=O)(=O)N(Cc2ccccc2)C=C1C(=O)OCc1ccc(Br)cc1 | 1200 |
| Cc1ccc(-c2nnc(-c3nn(C)c4c3CN(S(=O)(=O)c3ccc(CC(C)C)cc3)CC4)o2)cc1 | 1230 |
| Cc1ccc(-c2nnc(-c3ccc(N4CCC(C)CC4)nc3)o2)cc1 | 1310 |
| COc1ccc(C2C(C(=O)O)c3ccccc3C(=O)N2C)cc1OC (stereo not given) | 657 |
| O=C(NCC1(c2cccs2)CCOCC1)c1ccsc1 | 706 |
| O=C(Nc1ccc2c(c1)C(=O)NC2=O)c1cccc([N+](=O)[O-])c1 | 696 |
| CC1CCN(C(=O)CN2C(=O)COc3ccc(C(=O)N4CCCCC4)cc32)CC1 | 716 |
| Cc1ccc(C)c(NC(=O)Cn2nc3cc(C)nc(-c4ccccc4)n3c2=O)c1 | 868 |
| CC(C)(C)C(O)CCNC(=O)c1ccc(C(F)(F)F)cc1 (stereo not given) | 813 |
| CNC(=O)c1ccc2c(c1)CCCN2S(=O)(=O)c1ccccc1 | 769 |
| Cc1csc(-c2cc(S(=O)(=O)NCCN3CCCC3)cn2CC(=O)N2CCCCC2)n1 | 649 |
| CCc1noc(-c2cccnc2N2CCCN(Cc3c(F)cccc3Cl)CC2)n1 | 668 |
| O=C(NCc1ccc2c(c1)OCO2)C1CCN(c2nc3ccccc3o2)CC1 | 754 |
| NCC(=O)Nc1ccc(Cl)cc1C(=O)c1ccc[nH]1 | 665 |
| COc1ccc(C(=O)N2CC(n3cc(COCC4CC4)nn3)C2)c(OC)n1 | 718 |

| SMILES | RP-LC retention time [s] |
| --- | --- |
| COc1ccc(F)cc1S(=O)(=O)N1C[C@@H](F)C[C@H]1C(=O)N1CCc2ccccc2C1 | 881 |
| Cc1occc1C(=O)Nc1nc(-c2ccc(C(C)(C)C)cc2)cs1 | 1300 |
| CN(C)CCC[C@@]1(c2ccc(F)cc2)OCc2cc(C#N)ccc21 | 724 |
| O=C1CCc2cc(NC(=O)c3cncc(Br)c3)ccc2N1 | 649 |
| CCOc1ccccc1NC(=O)N1CCCC1c1cc(C)on1 (stereo not given) | 870 |
| O=c1ccc(-c2ccc3c(c2)OCO3)nn1CCc1nc(-c2ccc(Cl)cc2)no1 | 1040 |
| CC(C)Cc1ccc(S(=O)(=O)N2CCCC2c2nc(-c3ccc(F)cc3)no2)cc1 (stereo not given) | 1360 |
| O=C(NCCc1ccccc1)N(C1CCOCC1)C1CCN(Cc2cccc(F)c2)CC1 | 604 |
| Cc1ccc2nc(-c3cccc(Br)c3)c(Nc3ccc4c(c3)OCCO4)n2c1 | 749 |
| CCOc1cccc(CNC(=O)CCc2nnc3c4cc(-c5ccccc5)nn4ccn23)c1 | 766 |
| CC(NC(=O)C1CCN(c2ncnc3c2oc2ccccc23)CC1)c1ccccc1 (stereo not given) | 735 |
| COc1cccc2cc(C(=O)N3CCN(CCn4cccn4)CC3)oc12 | 571 |
| O=C(c1cccnc1)N1CCCN(c2nnc3ccc(Cl)cn23)CC1 | 559 |
| NCCC1CCN(C(=O)Nc2cc(F)ccc2F)CC1 | 588 |
| COc1ccc(Cn2nnc(C(=O)O)c2C)cc1F | 645 |
| Cc1noc(C)c1CC(=O)NC1CCN(c2ccc(=O)n(CCOc3ccccc3)n2)C1 (stereo not given) | 701 |
| Cc1cccc(OCC(=O)N2C[C@@H](F)C[C@H]2C(=O)N2CCc3ccccc32)c1 | 878 |
| Cc1cc(N2CCN(C)CC2)nc(N2CCN(S(=O)(=O)c3ccc(-c4ccccc4)cc3)CC2)n1 | 615 |
| O=C(Cc1csc2nc(-c3ccccc3)cn12)NCCc1ccc(Cl)cc1 | 806 |
| COc1ccc(C(=O)Nc2sc3ccccc3c(=O)c2-c2cccs2)cc1OC | 951 |
| CCOc1cccc(-c2noc(Cn3ccn(Cc4ccc(Cl)cc4)c(=O)c3=O)n2)c1 | 973 |
